Source: publication PMC12207590, “Substrate Specificity of the Organic Cation Transporters MATE1 and MATE2K and Functional Overlap with OCT1 and OCT2” (Journal of Medicinal Chemistry, 2025)
Where two headings read alike, the source gives them in different places.

Columns and labels:
MATE1 = biological target: T1, MATE1 (Homo sapiens, UniProt Q96FL8); experiment: Uptake ratio in MATE1-overexpressing HEK293 cells vs empty vector (2.5 μM, 1 min, HPLC-MS/MS); assay type: cell-based
T1 sequence (Q96FL8 1-570): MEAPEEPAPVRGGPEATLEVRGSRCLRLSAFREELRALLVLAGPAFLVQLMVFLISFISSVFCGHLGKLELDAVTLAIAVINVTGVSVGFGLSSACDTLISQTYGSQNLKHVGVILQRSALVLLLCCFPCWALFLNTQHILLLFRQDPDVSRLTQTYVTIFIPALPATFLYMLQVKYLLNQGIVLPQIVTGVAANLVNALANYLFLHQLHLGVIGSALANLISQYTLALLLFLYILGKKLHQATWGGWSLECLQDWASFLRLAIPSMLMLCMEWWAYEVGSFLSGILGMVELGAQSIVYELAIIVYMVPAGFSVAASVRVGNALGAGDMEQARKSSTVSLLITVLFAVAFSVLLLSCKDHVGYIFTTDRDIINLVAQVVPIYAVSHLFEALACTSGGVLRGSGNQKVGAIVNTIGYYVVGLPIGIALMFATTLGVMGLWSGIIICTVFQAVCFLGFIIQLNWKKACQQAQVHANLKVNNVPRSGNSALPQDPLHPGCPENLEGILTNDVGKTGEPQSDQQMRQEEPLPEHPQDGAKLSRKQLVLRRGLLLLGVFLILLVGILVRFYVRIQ

MATE2K = MATE2K (Homo sapiens, UniProt Q86VL8); experiment: Uptake ratio in MATE2K-overexpressing HEK293 cells vs empty vector (2.5 μM, 1 min, HPLC-MS/MS); assay type: cell-based
[1] = fold uptake over empty vector, 2.5 μM, 1 min
[2] = uptake ratio MATE1-overexpressing vs empty-vector HEK293 cells, 2.5 μM, 1 min, mean
[3] = uptake ratio MATE2K-overexpressing vs empty-vector HEK293 cells, 2.5 μM, 1 min, mean
[4] = mean ratio of uptake in MATE1-overexpressing HEK293 cells vs empty vector, 2.5 μM, 1 min
[5] = mean ratio of uptake in MATE2K-overexpressing HEK293 cells vs empty vector, 2.5 μM, 1 min

Chain of MATE2K (Q86VL8 1-566 isoform Q86VL8-3): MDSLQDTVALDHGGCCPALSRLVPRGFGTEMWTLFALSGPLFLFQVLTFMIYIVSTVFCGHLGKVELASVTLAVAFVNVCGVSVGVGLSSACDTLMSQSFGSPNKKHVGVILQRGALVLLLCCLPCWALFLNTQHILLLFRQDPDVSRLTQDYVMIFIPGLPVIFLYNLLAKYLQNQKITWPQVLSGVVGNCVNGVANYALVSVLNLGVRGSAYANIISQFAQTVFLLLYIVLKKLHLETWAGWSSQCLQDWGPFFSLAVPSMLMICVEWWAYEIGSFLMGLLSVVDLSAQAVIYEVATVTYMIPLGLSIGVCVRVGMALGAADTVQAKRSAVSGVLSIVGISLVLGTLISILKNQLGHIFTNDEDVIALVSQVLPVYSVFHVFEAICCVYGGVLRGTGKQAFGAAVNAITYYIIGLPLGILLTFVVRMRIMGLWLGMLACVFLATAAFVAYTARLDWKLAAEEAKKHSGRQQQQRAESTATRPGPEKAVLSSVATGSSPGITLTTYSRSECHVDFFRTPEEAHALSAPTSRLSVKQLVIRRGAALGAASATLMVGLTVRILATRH

Row | SMILES | MATE1 ratio (MATE1; [1]) | MATE2K ratio (MATE2K; [1]) | MATE1 ratio (MATE1) | MATE2K ratio (MATE2K) | further results
1 | COc1cccc(C2(O)CCCCC2CN(C)C)c1 (stereo not drawn) [Tramadol] |  |  |  |  | MATE1 (MATE1): 1.13; MATE2 (MATE2K): 1.44
2 | CC(=O)Nc1ccc(OCC(O)CNC(C)C)cc1 (stereo not drawn) [Practolol] | 21.52 | 8.46 |  |  | 
3 | NCCCCNCCCN [Spermidine] | 0.63 | 0.55 |  |  | MATE1 (MATE1; [2]): 0.63; MATE2 (MATE2K; [3]): 0.55
4 | CC(C)(C)NCC(O)c1ccc(O)c(CO)c1 [Salbutamol (R), Salbutamol] | 6.98 | 3.74 |  |  | MATE1 ratio in this study (MATE1; Table S1, 2.5 μM, 1 min): 6.98; MATE1 (MATE1; [2]): 6.98; MATE2K ratio in this study (MATE2K; Table S1, 2.5 μM, 1 min): 3.74; MATE2 (MATE2K; [3]): 3.74
5 | COc1cc2c(cc1OC)[C@H](C)NCC2 [Salsolidine] |  |  | 1.24 | 1.46 | MATE1 (MATE1): 1.24; MATE2 (MATE2K): 1.46
6 | NCCCC(=O)O [Gamma-aminobutyric acid] | 0.90 | 0.87 |  |  | 
7 | CN1CCN(CC(=O)N2c3ccccc3C(=O)Nc3cccnc32)CC1 [Pirenzepine] | 2.80 | 1.36 |  |  | 
8 | CC(=O)Nc1ccc(O)cc1 [Paracetamol] | 1.00 | 0.99 |  |  | 
9 | O=P1(NCCCl)OCCCN1CCCl (stereo not drawn) [Ifosfamide] |  |  | 1.24 | 1.17 | 
10 | CC(C)NCC(O)COc1cccc2ccccc12 [Propranolol (S), Propranolol] |  |  |  |  | MATE1 (MATE1; [2]): 1.13; MATE2 (MATE2K; [3]): 0.96
11 | CCN1C[C@]2(COC)[C@H](O)C[C@H](OC)[C@@]34[C@@H]5C[C@@]6(O)[C@H](OC(=O)c7ccccc7)[C@@H]5[C@@](OC(C)=O)([C@@H]([C@H](OC)[C@H]23)[C@@H]14)[C@@H](O)[C@@H]6OC [Aconitine] |  |  | 1.13 | 1.32 | MATE1 (uptake ratio) (MATE1): 1.13; MATE2 (uptake ratio) (MATE2K): 1.32
12 | [H]/N=C(\N/C(=N/[H])NCCCCCCNC(=N)NC(=N)Nc1ccc(Cl)cc1)Nc1ccc(Cl)cc1 [Chlorhexidine] | 1.08 | 0.99 |  |  | MATE1 (uptake ratio) (MATE1; [4]): 1.08; MATE2 (uptake ratio) (MATE2K; [5]): 0.99
13 | CCS(=O)(=O)N1CC(CC#N)(n2cc(-c3ncnc4[nH]ccc34)cn2)C1 [Baricitinib] | 0.82 | 1.04 |  |  | MATE1 ratio in this study (MATE1; Table S1, 2.5 μM, 1 min): 0.82; MATE1 (uptake ratio) (MATE1; [4]): 0.82; MATE2K ratio in this study (MATE2K; Table S1, 2.5 μM, 1 min): 1.04; MATE2 (uptake ratio) (MATE2K; [5]): 1.04
14 | Nc1ccc(S(=O)(=O)c2ccc(N)cc2)cc1 [Dapsone] | 0.89 | 0.95 |  |  | 
15 | C[C@]12CCC(=O)C=C1CC[C@@H]1[C@@H]2CC[C@@]2(C)[C@H]1CC[C@]2(C)O [17-Alpha-methyltestosterone] |  |  | 1.17 | 1.22 | MATE1 (uptake ratio) (MATE1): 1.17; MATE2 (uptake ratio) (MATE2K): 1.22
16 | CCCC[N+]1(C)[C@@H]2C[C@@H](OC(=O)[C@H](CO)c3ccccc3)C[C@H]1[C@@H]1O[C@@H]12 (stereo partly drawn) [Butylscopolamine] |  |  | 23.84 | 1.70 | MATE1 (uptake ratio) (MATE1): 23.84; MATE1 ratio in this study (MATE1): 23.84; MATE2 (uptake ratio) (MATE2K): 1.7; MATE2K ratio in this study (MATE2K): 1.70
17 | Oc1ccc2c3c1O[C@H]1[C@H](O)CC[C@@]4(O)[C@@H](C2)N(CC2CC2)CC[C@]314 [6-beta-Naltrexol] |  |  | 1.20 | 1.20 | MATE1 (uptake ratio) (MATE1): 1.2; MATE2 (uptake ratio) (MATE2K): 1.2
18 | CN(C)CCOC(=O)C(c1ccccc1)C1(O)CCCC1 (stereo not drawn) [Cyclopentolate] | 1.09 | 1.34 |  |  | 
19 | Cc1cc(O)cc(C)c1OCC(C)N (stereo not drawn) [4-Hydroxymexiletine] | 1.67 | 1.42 |  |  | MATE1 (uptake ratio) (MATE1; [4]): 1.67; MATE2 (uptake ratio) (MATE2K; [5]): 1.42
20 | N=C(N)NC(=N)Nc1ccc(Cl)cc1 [1-(4-Chlorophenyl)biguanide] |  |  | 6.97 | 3.82 | MATE1 (uptake ratio) (MATE1): 6.97; MATE2 (uptake ratio) (MATE2K): 3.82
21 | CC(C)C[C@H](N)C(=O)O [Leucine] | 1.18 | 1.06 |  |  | 
22 | CN1CCc2cccc3c2[C@H]1Cc1ccc(O)c(O)c1-3 [Apomorphine] | 1.05 | 1.02 |  |  | MATE1 (uptake ratio) (MATE1; [4]): 1.05; MATE2 (uptake ratio) (MATE2K; [5]): 1.02
23 | C[n+]1ccc(-c2ccccc2)cc1 [1-Methyl-4-phenylpyridinium] |  |  | 23.35 | 9.05 | MATE1 (uptake ratio) (MATE1): 23.35; MATE1 ratio in this study (MATE1): 23.35; MATE2 (uptake ratio) (MATE2K): 9.05; MATE2K ratio in this study (MATE2K): 9.05
24 | Clc1ccc2c(c1)C(N1CCNCC1)=Nc1ccccc1O2 [Amoxapine] | 1.32 | 1.33 |  |  | MATE1 (uptake ratio) (MATE1; [4]): 1.32; MATE2 (uptake ratio) (MATE2K; [5]): 1.33
